What all share (format): cell-based
Series [1] has as its system Enterobacter cloacae NCTC 13406. The experiment in a line: MIC, broth microdilution (CLSI). The settings on record: E. cloacae NCTC 13406, 16-20 h, mode of three experiments.
For series [2], the system named is Haemophilus influenzae ATCC 49247. The experiment in a line: MIC, broth microdilution (CLSI). The settings on record: H. influenzae ATCC 49247, 16-20 h, mode of three experiments.
The test system of a further series is HepG2 ATCC HB-8065. The experiment in a line: Human cell viability assay (CellTiter-Glo). As for the experimental part: Compounds are assessed for potential non-specific cytotoxic effects against a human hepatic cell line (HepG2 ATCC HB-8065). HepG2 cells are seeded at 20,000 cells/well in 96-well microtitre plates in minimal essential medium (MEM) supplemented with a final concentration of 10% FBS and 1 mM sodium pyruvate. After 24 h compound dilutions are prepared in Dulbecco's minimum essential media (DMEM) supplemented with final concentrations of 0.001% FBS, 0.3% bovine albumin and 0.02% HEPES and added to cells. Compounds are tested in two-fold serial dilutions over a final concentration range of 1-128 μg/mL in a final DMSO concentration of 1% vol/vol. Chlorpromazine is used as a positive control. Cells are incubated with compound at 37° C. and 5% CO2 for a further 24 h, after which time the CellTiter-Glo reagent (Promega) is added. Luminescence is measured on a BMG Omega plate reader. Data are analysed using GraphPad Prism software to determine the concentration of compound that inhibits cell viability by fifty percent (IC50).

The subject of series [3] is Acinetobacter baumannii NCTC 13420. Nature of the series: MIC, broth microdilution (CLSI). The settings on record: A. baumannii NCTC 13420, 16-20 h, mode of three experiments.
Series [4] has as its system Escherichia coli ATCC 25922. Nature of the series: MIC, broth microdilution (CLSI). The settings on record: E. coli ATCC 25922, 16-20 h, mode of three experiments.
For series [5], the system named is Staphylococcus aureus ATCC 29213. Nature of the series: MIC, broth microdilution (CLSI). The settings on record: S. aureus ATCC 29213, 16-20 h, mode of three experiments.
Series [6] deals with Klebsiella pneumoniae NCTC 13443. Nature of the series: MIC, broth microdilution (CLSI). The settings on record: NCTC13443, K. pneumoniae NCTC 13443, 16-20 h, mode of three experiments.
Series [7] concerns Klebsiella pneumoniae ATCC 700603. Nature of the series: MIC, broth microdilution (CLSI). The settings on record: K. pneumoniae ATCC 700603, 16-20 h, mode of three experiments.
Series [8] relates to Streptococcus pneumoniae ATCC 49619. Nature of the series: MIC, broth microdilution (CLSI). The settings on record: S. pneumoniae ATCC 49619, 16-20 h, mode of three experiments.
Series [9] deals with Pseudomonas aeruginosa ATCC 27853. The experiment in a line: MIC, broth microdilution (CLSI). The settings on record: P. aeruginosa ATCC 27853, 16-20 h, mode of three experiments.
Series [10] relates to Mycobacterium smegmatis ATCC 19420. The experiment in a line: MIC, broth microdilution (CLSI). The settings on record: M. smegmatis ATCC 19420; 16-20 h; mode of three experiments.
Series [11] has as its system Acinetobacter baumannii ATCC 19606. The experiment in a line: MIC, broth microdilution (CLSI). The settings on record: A. baumannii ATCC 19606; 16-20 h; mode of three experiments.

Each structure is given as a SMILES string. In brackets after ≈: the same amount, converted by molar mass. Like-named read-outs stand apart in the source and are kept apart here.

As for `N#Cc1cccc(-c2cccc(CN3C[C@@H]4CN(c5ccc6c(n5)NC(=O)CO6)C(=O)O[C@H]4C3)c2O)n1` (relative stereo) [Compound 3], the MIC was above 100 µg/mL in [1] (Enterobacter cloacae, NCTC13406, read-out: MIC); 1 to 10 µg/mL (≈ 2.01 to 20.1 µM) in [2] (Haemophilus influenzae, ATCC49247, read-out: MIC); 1 to 10 µg/mL (≈ 2.01 to 20.1 µM) in series [3] (Acinetobacter baumannii, NCTC13420, read-out: MIC); 1 to 10 µg/mL (≈ 2.01 to 20.1 µM) in series [4] (Escherichia coli, ATCC25922, read-out: MIC); below 1 µg/mL in series [5] (Staphylococcus aureus, ATCC29213, read-out: MIC); 1 to 10 µg/mL (≈ 2.01 to 20.1 µM) in series [6]. In addition, the MIC in [7] (Klebsiella pneumoniae, ATCC700603, read-out: MIC) was above 100 µg/mL; in [8] (Streptococcus pneumoniae, ATCC49619, read-out: MIC) it was 1 to 10 µg/mL (≈ 2.01 to 20.1 µM); in series [9] (Pseudomonas aeruginosa, ATCC27853, read-out: MIC), above 100 µg/mL. The IC50 in the series on HepG2 ATCC HB-8065 (Homo sapiens, HepG2 cell viability, 24 h with compound, range 1-128 μg/mL) is 10 to 100 µg/mL (≈ 20.1 to 201 µM). Further, the “toxicity against HepG2 human hepatic cell line (in words)” value in the series with HepG2 ATCC HB-8065 (summary of Table 3) was “acceptable level of hepatic toxicity”.

Turning to `COc1ccc2c3nocc3c(=O)n(CCN3C[C@H]4CN(c5ccc6c(n5)NC(=O)CO6)C(=O)O[C@H]4C3)c2c1` (relative stereo) [Compound 9, rel-(4aS*,7aR*-6-(2-{7-methoxy-4-oxo-4H,5H-[1,2]oxazolo[3,4-c]quinolin-5-yl}ethyl)-3-{3-oxo-2H,3H,4H-pyrido[3,2-b][1,4]oxazin-6-yl}-octahydropyrrolo[3,4-e][1,3]oxazin-2-one], the MIC result in [1] was “D (a MIC of over 100 is assigned the letter D)”; in [2], “B (a MIC of from 1 to 10 is assigned the letter B)”; in series [3], “D (a MIC of over 100 is assigned the letter D)”; in series [4], “C (a MIC of from 10 to 100 is assigned the letter C)”; in [5] it was “A (an MIC (in μg/mL) of less or equal to 1 is assigned the letter A)”; in [10], “A (an MIC (in μg/mL) of less or equal to 1 is assigned the letter A)”. In addition, the MIC result is given as “D (a MIC of over 100 is assigned the letter D)” in [7], “B (a MIC of from 1 to 10 is assigned the letter B)” in [8], “A (an MIC (in μg/mL) of less or equal to 1 is assigned the letter A)” in [11] and “D (a MIC of over 100 is assigned the letter D)” in series [9]. Further, the “IC50 HepG2” value with HepG2 ATCC HB-8065 (HepG2 cell viability, 24 h with compound, range 1-128 μg/mL) was “C (an IC50 of from 1 to 10 is assigned the letter C)”.

The values above are taken from US20210179636A1, “ANTIBACTERIAL COMPOUNDS” (priority 2016, published 2021).
